Assays:
hERG (KCNH2) = hERG (KCNH2) (Homo sapiens, UniProt Q12809); test: Inhibition of human ERG at 3 uM by patch clamp method relative to control
Histamine H4 receptor = Histamine H4 receptor (Homo sapiens, UniProt Q9H3N8); test: Antagonist activity at human histamine H4 receptor expressed in HEK293 cells preincubated for 5 mins followed by forskolin-stimulation and measured after 5 hrs by CRE-driven luciferase reporter gene assay; type: functional, cell-based
Histamine H2 receptor = Histamine H2 receptor (Homo sapiens, UniProt P25021); test: Antagonist activity at human histamine H2 receptor expressed in HEK293 cells preincubated for 5 mins followed by forskolin-stimulation and measured after 5 hrs by CRE-driven luciferase reporter gene assay; type: functional, cell-based
Sequence of Histamine H2 receptor (P25021 whole entry): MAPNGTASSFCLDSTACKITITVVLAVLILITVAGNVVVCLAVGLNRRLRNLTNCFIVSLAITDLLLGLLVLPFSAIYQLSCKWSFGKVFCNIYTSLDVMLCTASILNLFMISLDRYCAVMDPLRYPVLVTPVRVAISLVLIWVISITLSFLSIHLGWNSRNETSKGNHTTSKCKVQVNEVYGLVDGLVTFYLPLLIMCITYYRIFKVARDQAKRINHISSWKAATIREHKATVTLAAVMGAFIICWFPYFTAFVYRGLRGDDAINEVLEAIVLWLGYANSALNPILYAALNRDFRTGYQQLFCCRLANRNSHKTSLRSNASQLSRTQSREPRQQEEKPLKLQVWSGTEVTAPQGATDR

Histamine H1 receptor = Histamine H1 receptor (Homo sapiens, UniProt P35367); test: Antagonist activity at human histamine H1 receptor expressed in HEK293 cells preincubated for 5 mins followed by forskolin-stimulation and measured after 5 hrs by CRE-driven luciferase reporter gene assay; type: functional, cell-based
Sequence of Histamine H1 receptor (P35367 whole entry): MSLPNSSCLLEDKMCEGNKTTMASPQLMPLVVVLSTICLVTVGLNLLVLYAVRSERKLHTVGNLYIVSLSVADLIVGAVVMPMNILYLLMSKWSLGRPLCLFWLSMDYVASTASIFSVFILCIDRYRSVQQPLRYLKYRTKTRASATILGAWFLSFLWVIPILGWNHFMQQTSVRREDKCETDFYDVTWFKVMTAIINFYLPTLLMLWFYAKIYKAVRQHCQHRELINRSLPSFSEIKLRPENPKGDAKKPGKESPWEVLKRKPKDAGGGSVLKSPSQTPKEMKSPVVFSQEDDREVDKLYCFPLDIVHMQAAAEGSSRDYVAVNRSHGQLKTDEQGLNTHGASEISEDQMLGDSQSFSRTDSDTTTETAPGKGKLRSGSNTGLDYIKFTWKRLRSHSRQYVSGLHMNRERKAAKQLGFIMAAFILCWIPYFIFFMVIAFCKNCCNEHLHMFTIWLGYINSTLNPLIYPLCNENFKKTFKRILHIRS

Sequence of hERG (KCNH2) (Q12809 whole entry): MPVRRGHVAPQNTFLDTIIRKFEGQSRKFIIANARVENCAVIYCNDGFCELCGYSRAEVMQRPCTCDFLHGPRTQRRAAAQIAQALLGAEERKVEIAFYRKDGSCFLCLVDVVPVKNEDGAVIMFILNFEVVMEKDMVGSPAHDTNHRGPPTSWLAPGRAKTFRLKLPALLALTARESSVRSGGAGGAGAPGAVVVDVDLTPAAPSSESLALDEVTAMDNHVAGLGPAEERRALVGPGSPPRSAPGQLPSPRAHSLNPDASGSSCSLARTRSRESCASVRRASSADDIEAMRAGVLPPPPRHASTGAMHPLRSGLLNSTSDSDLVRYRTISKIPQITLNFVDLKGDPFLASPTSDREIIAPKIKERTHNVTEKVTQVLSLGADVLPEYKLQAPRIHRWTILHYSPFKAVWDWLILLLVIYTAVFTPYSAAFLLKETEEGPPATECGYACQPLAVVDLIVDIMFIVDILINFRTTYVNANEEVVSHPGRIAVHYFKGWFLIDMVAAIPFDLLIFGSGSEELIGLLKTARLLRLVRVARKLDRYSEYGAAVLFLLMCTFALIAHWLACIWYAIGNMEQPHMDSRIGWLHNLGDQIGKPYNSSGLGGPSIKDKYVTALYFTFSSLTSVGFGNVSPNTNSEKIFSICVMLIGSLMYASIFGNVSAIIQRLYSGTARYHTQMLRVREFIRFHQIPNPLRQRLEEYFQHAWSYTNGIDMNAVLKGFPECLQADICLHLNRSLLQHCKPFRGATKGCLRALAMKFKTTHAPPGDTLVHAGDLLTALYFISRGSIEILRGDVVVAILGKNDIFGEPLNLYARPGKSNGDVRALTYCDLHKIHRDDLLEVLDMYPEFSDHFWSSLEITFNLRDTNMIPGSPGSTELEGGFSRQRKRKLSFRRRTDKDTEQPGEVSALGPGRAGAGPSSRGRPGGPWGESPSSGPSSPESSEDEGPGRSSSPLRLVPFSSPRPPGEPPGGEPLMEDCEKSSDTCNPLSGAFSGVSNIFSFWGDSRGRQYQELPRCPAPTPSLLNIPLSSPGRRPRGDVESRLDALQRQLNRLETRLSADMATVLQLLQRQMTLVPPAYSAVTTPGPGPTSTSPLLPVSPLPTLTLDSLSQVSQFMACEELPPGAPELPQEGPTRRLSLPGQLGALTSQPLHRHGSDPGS
Sequence of Histamine H4 receptor (Q9H3N8 whole entry): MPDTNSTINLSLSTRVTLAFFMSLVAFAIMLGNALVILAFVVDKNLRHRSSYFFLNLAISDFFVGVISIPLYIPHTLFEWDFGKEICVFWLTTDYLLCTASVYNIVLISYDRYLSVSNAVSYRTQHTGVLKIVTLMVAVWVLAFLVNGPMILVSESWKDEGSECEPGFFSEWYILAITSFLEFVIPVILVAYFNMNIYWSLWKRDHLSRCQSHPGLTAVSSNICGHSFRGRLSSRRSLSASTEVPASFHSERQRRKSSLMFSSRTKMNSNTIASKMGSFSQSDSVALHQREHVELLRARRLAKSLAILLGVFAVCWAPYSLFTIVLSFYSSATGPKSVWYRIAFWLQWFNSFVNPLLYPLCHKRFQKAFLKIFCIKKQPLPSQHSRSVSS

Structure (SMILES): COc1cn(-c2ccc(OCCCN3CCCC3)cc2)ccc1=O
- inhibition at 3 µM (hERG (KCNH2)): 6.3%
- IC50 (Histamine H4 receptor): > 10 µM
- IC50 (Histamine H2 receptor): > 10 µM
- IC50 (Histamine H1 receptor): > 10 µM
